Here are results for 13 molecules from patent US20240398805A1, “QUINAZOLINE DERIVED COMPOUNDS AS EGFR INHIBITORS AND THEIR USES THEREOF” (ACCUTAR BIOTECHNOLOGY INC., priority 2021, published 2024).

Holding throughout (format): cell-based
One experiment has as its system HCC827 cells. In words: Cell growth inhibition (CellTiter-Glo, 3 days) in HCC827. Conditions: Homo sapiens, 72 h, 3 days after administration. The procedure, abridged: (§1)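 HCC827 cells were plated at 5000 cells/well in RPMI with 10% FBS, and A431 cells at the same density in DMEM with 10% FBS. After overnight attachment, compounds were added at various concentrations. Luminescence was recorded after plates were equilibrated to room temperature and incubated 10 min with reagent.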
In general terms: Cellular ATP, detected with luciferase, serves as a proxy for viable cell number.

Experiment [1] deals with HCC827-SVD cells (human EGFR exon 20 insertion mutant D770_N771 insSVD). In words: Cell growth inhibition (CellTiter-Glo, 3 days) in HCC827-SVD. The settings on record: 72 h, 3 days after administration. The procedure, abridged:
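HCC827 cells carrying lentiviral codon-optimized EGFR D770_N771 insSVD, with endogenous EGFR knocked out by CRISPR (single clone), seeded at 5000 cells/well in RPMI with 10% FBS. Viability read by CellTiter-Glo luminescence.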

Experiment [2] relates to HCC827-ASV cells (human EGFR exon 20 insertion mutant A769_D770insASV). Nature of the experiment: Cell growth inhibition (CellTiter-Glo, 3 days) in HCC827-ASV. Conditions: 72 h, 3 days after administration. The procedure, abridged:
(§2)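 Growth inhibition used a CellTiter-Glo luminescence read-out after 3 days of compound exposure at various concentrations. Cells were plated the day before at 5000/well in RPMI plus 10% FBS. The lines are HCC827 transduced by lentivirus with codon-optimized EGFR ASV or ERBB2 YVMA exon 20 insertions.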

Experiment [3] relates to HCC827-YVMA cells (human ERBB2 exon20 insertion mutant A775_G776ins YVMA). In words: Cell growth inhibition (CellTiter-Glo, 3 days) in HCC827-YVMA. Conditions: 72 h, 3 days after administration. Put shortly: as §2
The subject of a further experiment is A431 cells. In words: Cell growth inhibition (CellTiter-Glo, 3 days) in A431. Conditions: Homo sapiens, A-431, 72 h, 3 days after administration. The procedure, abridged: as §1

On to `C=CC(=O)N1CCC(Nc2cc3c(Nc4ccc(Oc5ccn(-c6ccnc(OC)n6)n5)cc4F)ncnc3cc2OC)CC1` [Example 47, 1-(4-((4-((2-fluoro-4-((1-(2-methoxypyrimidin-4-yl)-1H-pyrazol-3-yl)oxy)phenyl)amino)-7-methoxyquinazolin-6-yl)amino)piperidin-1-yl)prop-2-en-1-one], for which the GI50 in the experiment on HCC827 cells was 0.03 to 0.06 µM; in experiment [1], 0.03 to 0.06 µM; in experiment [2], less than 0.03 µM; in experiment [3], less than 0.03 µM; in the experiment on A431 cells it was 0.3 to 0.6 µM.
With `C=CC(=O)N1CCC(Nc2cc3c(Nc4ccc(Oc5ccnc(N6C[C@@H]7OCCO[C@@H]7C6)c5)cc4F)ncnc3cc2OC)CC1` [Example 254, 1-(4-((4-((2-fluoro-4-((2-((4aR,7aS)-hexahydro-6H-[1,4]dioxino[2,3-c]pyrrol-6-yl)pyridin-4-yl)oxy)phenyl)amino)-7-methoxyquinazolin-6-yl)amino)piperidin-1-yl)prop-2-en-1-one], the GI50 is 0.06 to 0.1 µM in the experiment on HCC827 cells; less than 0.03 µM in experiment [1]; less than 0.03 µM in experiment [2]; less than 0.03 µM in experiment [3]; no less than 1 µM in the experiment on A431 cells.
With `C=CC(=O)N1CCC(Nc2cc3c(Nc4ccc(Oc5ccnc(-c6nc(C)c(C)s6)c5)cc4F)ncnc3cc2OC)CC1` [Example 176, 1-(4-((4-((4-((2-(4,5-dimethylthiazol-2-yl)pyridin-4-yl)oxy)-2-fluorophenyl)amino)-7-methoxyquinazolin-6-yl)amino)piperidin-1-yl)prop-2-en-1-one], the GI50 in the experiment with HCC827 cells was 0.1 to 0.3 µM; in experiment [1], 0.03 to 0.06 µM; in experiment [2], less than 0.03 µM; in experiment [3], less than 0.03 µM; in the experiment on A431 cells, 0.6 to 1 µM.
For the molecule `C=CC(=O)N1CCC(Nc2cc3c(Nc4ccc(Oc5ccnc(-c6ccn[nH]6)c5)cc4F)ncnc3cc2OC)CC1` [Example 45, 1-(4-((4-((4-((2-(1H-pyrazol-5-yl)pyridin-4-yl)oxy)-2-fluorophenyl)amino)-7-methoxyquinazolin-6-yl)amino)piperidin-1-yl)prop-2-en-1-one], the GI50 was 0.1 to 0.3 µM with HCC827 cells; 0.06 to 0.1 µM in experiment [1]; less than 0.03 µM in experiment [2]; 0.06 to 0.1 µM in experiment [3]; 0.3 to 0.6 µM with A431 cells.
Consider `C=CC(=O)N1CCC(Nc2cc3c(Nc4ccc(Oc5ccnc(N6CC(S(C)(=O)=O)C6)c5)cc4F)ncnc3cc2OC)CC1` [Example 143, 1-(4-((4-((2-fluoro-4-((2-(3-(methylsulfonyl)azetidin-1-yl)pyridin-4-yl)oxy)phenyl)amino)-7-methoxyquinazolin-6-yl)amino)piperidin-1-yl)prop-2-en-1-one], for which the GI50 in the experiment with HCC827 cells is no less than 1 µM; in experiment [1], 0.3 to 0.6 µM; in experiment [2], 0.3 to 0.6 µM; in experiment [3], 0.3 to 0.6 µM; with A431 cells, no less than 1 µM.
As for `C=CC(=O)N1CCC(Nc2cc3c(Nc4ccc(Oc5ccnc(N6CC(C#N)C6)c5)cc4F)ncnc3cc2OC)CC1` [Example 141, 1-(4-(4-((6-((1-acryloylpiperidin-4-yl)amino)-7-methoxyquinazolin-4-yl)amino)-3-fluorophenoxy)pyridin-2-yl)azetidine-3-carbonitrile], the GI50 with HCC827 cells was 0.1 to 0.3 µM; in experiment [1] it was 0.03 to 0.06 µM; in experiment [2], less than 0.03 µM; in experiment [3] it was 0.03 to 0.06 µM; with A431 cells, no less than 1 µM.
With `C=CC(=O)N1CCC(Nc2cc3c(Nc4ccc(Oc5ccn(-c6cc(F)c(C)cn6)n5)c(Cl)c4)ncnc3cc2OC)CC1` [Example 17, 1-(4-((4-((3-chloro-4-((1-(4-fluoro-5-methylpyridin-2-yl)-1H-pyrazol-3-yl)oxy)phenyl)amino)-7-methoxyquinazolin-6-yl)amino)piperidin-1-yl)prop-2-en-1-one], the GI50 in the experiment on HCC827 cells fell in the range of 0.06 to 0.1 µM; in experiment [1], 0.1 to 0.3 µM; in experiment [2], 0.6 to 1 µM; in experiment [3], 0.6 to 1 µM; in the experiment on A431 cells it was 0.1 to 0.3 µM.
`C=CC(=O)N1CCC(Nc2cc3c(Nc4ccc(Oc5ccnc(N6CCOC[C@H]6CO)c5)cc4F)ncnc3cc2OC)CC1` [Example 126, (R)-1-(4-((4-((2-fluoro-4-((2-(3-(hydroxymethyl)morpholino)pyridin-4-yl)oxy)phenyl)amino)-7-methoxyquinazolin-6-yl)amino)piperidin-1-yl)prop-2-en-1-one]: the GI50 in the experiment with HCC827 cells was no less than 1 µM; in experiment [1] it was 0.1 to 0.3 µM; in experiment [2], 0.06 to 0.1 µM; in experiment [3], 0.1 to 0.3 µM; with A431 cells it was no less than 1 µM.
For `C=CC(=O)N1CCC(Nc2cc3c(Nc4ccc(Oc5ccn(-c6ccc(C)cn6)n5)c(Cl)c4)ncnc3cc2OC)CC1` [Compound 16], the GI50 in the experiment with HCC827 cells is less than 0.03 µM; in experiment [1], less than 0.03 µM; in experiment [2] it was less than 0.03 µM; in experiment [3] it was less than 0.03 µM; in the experiment with A431 cells, 0.3 to 0.6 µM.
As for `C=CC(=O)N1CCC(Nc2cc3c(Nc4ccc(Oc5ccnc(N6CCC[C@@H](O)C6)c5)cc4F)ncnc3cc2OC)CC1` [Example 214, (R)-1-(4-((4-((2-fluoro-4-((2-(3-hydroxypiperidin-1-yl)pyridin-4-yl)oxy)phenyl)amino)-7-methoxyquinazolin-6-yl)amino)piperidin-1-yl)prop-2-en-1-one], the GI50 with HCC827 cells is 0.3 to 0.6 µM; in experiment [1], 0.03 to 0.06 µM; in experiment [2], less than 0.03 µM; in experiment [3] it was less than 0.03 µM; in the experiment on A431 cells, no less than 1 µM.
Turning to `C=CC(=O)N1CCC(Nc2cc3c(Nc4ccc(Oc5nc(-c6cnc(C)nc6)cs5)cc4F)ncnc3cc2OC)CC1` [Example 32, 1-(4-((4-((2-fluoro-4-((4-(2-methylpyrimidin-5-yl)thiazol-2-yl)oxy)phenyl)amino)-7-methoxyquinazolin-6-yl)amino)piperidin-1-yl)prop-2-en-1-one], the GI50 was 0.06 to 0.1 µM with HCC827 cells; less than 0.03 µM in experiment [1]; less than 0.03 µM in experiment [2]; less than 0.03 µM in experiment [3]; 0.1 to 0.3 µM in the experiment on A431 cells.
`C=CC(=O)N1CCC(Nc2cc3c(Nc4ccc(Oc5ccnc(N6C[C@@H](F)[C@@H](F)C6)c5)cc4F)ncnc3cc2OC)CC1` [Example 253, 1-(4-((4-((4-((2-((3S,4R)-3,4-difluoropyrrolidin-1-yl)pyridin-4-yl)oxy)-2-fluorophenyl)amino)-7-methoxyquinazolin-6-yl)amino)piperidin-1-yl)prop-2-en-1-one]: the GI50 with HCC827 cells is 0.1 to 0.3 µM; in experiment [1] it was 0.03 to 0.06 µM; in experiment [2], 0.03 to 0.06 µM; in experiment [3], 0.03 to 0.06 µM; with A431 cells it was 0.3 to 0.6 µM.
For the molecule `C=CC(=O)N1CCC(Nc2cc3c(Nc4ccc(Oc5ccnc(N6CCN(C(C)=O)CC6)c5)cc4F)ncnc3cc2OC)CC1` [Example 120, 1-(4-((4-((4-((2-(4-acetylpiperazin-1-yl)pyridin-4-yl)oxy)-2-fluorophenyl)amino)-7-methoxyquinazolin-6-yl)amino)piperidin-1-yl)prop-2-en-1-one], the GI50 was no less than 1 µM in the experiment with HCC827 cells; 0.1 to 0.3 µM in experiment [1]; 0.1 to 0.3 µM in experiment [2]; 0.6 to 1 µM in experiment [3]; no less than 1 µM in the experiment on A431 cells.

As a reminder, the GI50 is the concentration giving 50% growth inhibition. High values mean lower sensitivity of the cells, low ones greater sensitivity of the cells.
